Measurements reported in paper PMC5673977, “Transport Deficiency Is the Molecular Basis of Candida albicans Resistance to Antifungal Oligopeptides” (Frontiers in Microbiology, 2017).
≈ marks a conversion by molar mass, not a printed value. Like-named read-outs stand apart in the source and are kept apart here. Where a SMILES comes first, the peptide text is derived from it. [ ]: non-standard residue; d: D form. The star is where a group is joined. Fumaryl(OMe) = COC(=O)/C=C/C(=O)*; Dap = NC[C@H](N)C(=O)O

Assays:
Format in all cases: cell-based, Candida albicans
C. albicans SC5314 = test system: C. albicans SC5314
Protocol: (§1) Strains were grown at 30°C in YPD medium (1% yeast extract, 2% peptone, and 2% glucose) and stored on YPD plates containing 2% agar. Susceptibility testing was performed in YPD and other three media: (a) RPMI-1640 w/o sodium bicarbonate, with L-glutamine + 2% glucose + 3.45% MOPS, pH adjusted to 7.0; (b) YNB-AS—Yeast Nitrogen Base w/o amino acids (contains ammonium sulfate 5 g L^-1) + 2% glucose; (c) YNB-SG—Yeast Nitrogen Base w/o amino acids and ammonium sulfate + 2% glucose + 0.2 g L^-1 sodium glutamate. In their solid version, used for the mutant generation and isolation, YNB-AS and YNB-SG contained 2% agar.
(§2) The in vitro growth inhibitory activity of antifungals was quantified by determination of minimal inhibitory concentration (MIC) values by the serial twofold dilution method, using the 96-well microtiter plates in three media: buffered RPMI-1640, YNB-AS, and YNB-SG. Conditions of the RPMI-1640-based assay were the same as outlined in the CLSI recommendations ([Clinical Laboratory Standards Institute, 2008]), except for the end-point readout that was done by spectrophotometric determination of cell density at 531 nm. Turbidity in individual wells was measured with a microplate reader (Victor^3; Perkin Elmer). MIC was defined as the lowest drug concentration that gave at least an 80% decrease in turbidity, relative to that of the drug-free growth control.
(§3) The 96-well microtiter plates were also used for determination of in vitro growth inhibitory activity in YPD and YNB-based media. Individual wells were inoculated with 5 × 10^3 cfu mL^-1 of C. albicans cells from the overnight culture in YPD medium. The inoculated plates were incubated 37°C for 24 h and then turbidity was measured with a microplate reader at 531 nm, as described above for the RPMI-1640-based assay.

C. albicans opt1Δ = conditions: turbidity 531 nm, at least 80% decrease
Protocol: as §1, §2, §3

[1] = test system: C. albicans opt1–opt5Δ ptr2Δ ptr22Δ; conditions: turbidity 531 nm, at least 80% decrease
Protocol: as §1, §2, §3

C. albicans opt1–opt5Δ [2] = conditions: turbidity 531 nm, at least 80% decrease
Protocol: as §1, §2, §3

C. albicans opt2Δ opt3Δ = conditions: turbidity 531 nm, at least 80% decrease
Protocol: as §1, §2, §3

C. albicans opt4Δ = conditions: turbidity 531 nm, at least 80% decrease
Protocol: as §1, §2, §3

C. albicans opt5Δ = conditions: turbidity 531 nm, at least 80% decrease
Protocol: as §1, §2, §3

C. albicans ptr2Δ ptr22Δ = conditions: turbidity 531 nm, at least 80% decrease
Protocol: as §1, §2, §3

C. albicans opt1–opt5Δ [3] = assay: Initial peptide uptake rate; conditions: 50 mM potassium phosphate buffer (pH 5.0 or 6.5) + 1% glucose, 30°C, 100 μM peptide, TNBS A420, slope 0- to 10-min
Outline: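 Exponentially grown yeast in 50 mM potassium phosphate (pH 5.0 or 6.5) with 1% glucose at 30°C received oligopeptide at a final 100 μM. Residual peptide in filtrates was measured every 5 min by trinitrobenzenesulfonate assay (A420). Initial rates come from 0–10 min slopes, per mg dry cells.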

C. albicans SC 5314 = assay: Disc diffusion method; conditions: YNB-AS agar, 10 μg of peptide on a disc (10 μL of 1 mg mL^-1), 48 h, 30°C
Protocol: Candida albicans cells, apparently resistant to FMDP-peptides, were isolated from the individual colonies formed on the surface of YNB-SG agar medium containing FMDP-peptide, 10 μg mL^-1 or within the growth inhibitory zones around the paper discs saturated with 10 μL of the FMDP-peptide solution, 1 mg mL^-1. In both versions, the agar surface was inoculated with 10^5 cells from the overnight culture in YPD medium, washed three times with sterile water, suspended in 0.2 mL of sterile water and the cell suspension was spread on the whole surface with a sterile glass rod. Plates were incubated for 48 h at 30°C and isolated colonies were picked with a platinum loop.
Growth inhibitory activity of FMDP-oligopeptides against C. albicans SC 5314 was also determined by the disc diffusion method. […] Cells grown in these colonies were collected, re-grown in YNB-AS and tested for sensitivity to FMDP-oligopeptides.
FIGURE 3 Disc diffusion activity determination of FMDP-oligopeptides. YNB-AS agar medium, 10 μg of each peptide applied on a disc. (A) F2; (B) F3; (C) F6; (D) F7; (E) F11.

[4] = test system: C. albicans isolates NF1-3 and LNF1-3; assay: Initial peptide uptake rate by isolates resistant to F2/F3; conditions: all six isolates NF1-3, LNF1-3; Figure 4
Protocol: Yeast cells grown exponentially in the YNB-SG medium were harvested by centrifugation (3000 ×g, 5 min), washed with 50 mM potassium phosphate buffer (pH 5.0 or 6.5), and suspended in the same buffer containing 1% glucose, to a final cell density corresponding to A660 ≅ 1.0. The cell suspension was incubated at 30°C. After 10 min, an oligopeptide solution was added, to give a final concentration of 100 μM. At that moment and at 5 min intervals thereafter, 2 mL samples of the cell suspension were withdrawn, immediately filtered through the Whatman GF/A filters and the filtrates were used to determine the residual peptide concentration. Then, the 1 mL portions of the filtrates were taken and combined with 1.25 mL aliquots of a solution containing 4% Na2B4O7 × 10 H2O and 0.8 mg mL^-1 of 2,4,6-trinitrobenzenesulfonate. The reaction was carried out at 37°C for 30 min. The A420 values were measured and the peptide concentration was read from the appropriate standard curve. Data were plotted as nanomoles of an oligopeptide, taken up by 1 mg (dry weight) of cells versus time. The initial uptake velocities were determined from the slopes of the linear part of the curves, in the 0- to 10-min region.
It is therefore clear that the diminished sensitivity of all six isolates to F2 and F3 was due to the reduced uptake, most likely by permease(s) of the PTR system.

[5] = RPMI-1640 medium, MOPS pH 7.0, CLSI conditions

## COC(=O)/C=C/C(=O)NC[C@H](NC(=O)[C@H](CCSC)NC(=O)[C@@H](NC(=O)[C@@H]1CCCN1C(=O)[C@H](CC(C)C)NC(=O)[C@@H](N)CCCCN)C(C)C)C(=O)O [Peptide F6, Lys-Leu-Pro-Val-Met-FMDP] (H-KLPVM[Dap](Fumaryl(OMe))-OH; N-terminus and C-terminus assumed)
C. albicans SC5314; SC 5314, RPMI-1640 medium, MOPS pH 7.0, CLSI conditions, turbidity 531 nm, at least 80% decrease
  MIC: >128 µg/mL
C. albicans SC5314; SC 5314, YNB + L-Gln (0.3 g L^-1) pH 5.0
  MIC: 4.0 µg/mL
C. albicans SC5314; SC 5314, YNB + L-Gln (0.3 g L^-1) pH 7.0
  MIC: 128 µg/mL
C. albicans SC5314; SC 5314, YNB + amino acid mixture (composition as in RPMI-1640)
  MIC: >128 µg/mL
C. albicans SC5314; SC 5314, YNB-AS medium, 5 × 10^3 cfu mL^-1, 37°C, 24 h, turbidity 531 nm, at least 80% decrease
  MIC: 4 µg/mL (≈ 5.1 µM)
C. albicans SC5314; SC5314, YNB-SG medium (Table 8)
  MIC: 4 µg/mL (≈ 5.1 µM)
C. albicans SC5314; SC 5314, YNB-SG medium, 5 × 10^3 cfu mL^-1, 37°C, 24 h, turbidity 531 nm, at least 80% decrease
  MIC: 0.5 µg/mL (≈ 0.637 µM)
C. albicans SC5314; SC 5314, growth medium YNB-SG (Table 6)
  MIC: 0.5 µg/mL (≈ 0.637 µM)
C. albicans SC5314; YNB-SG + Ala-Ala-Ala-Ala 1 g L^-1
  Increase of MICs in presence of Ala-Ala-Ala-Ala: 16- to 64 fold
C. albicans SC5314; YNB-based media + Ala-Ala or Ala-Ala-Ala, 1 g L^-1, 'similar effect' = complete elimination of activity as with Bacto Peptone
  Effect of supplementation with Ala-Ala or Ala-Ala-Ala on activity: no effect
C. albicans SC5314; wild type SC5314
  MIC in YNB-AS, times higher than in YNB-SG: 8–16 times
C. albicans opt1Δ; [5]
  MIC: >128 µg/mL
C. albicans opt1Δ; YNB-AS medium, 37°C, 24 h
  MIC: 8 µg/mL (≈ 10.2 µM)
C. albicans opt1Δ; YNB-SG medium, 37°C, 24 h
  MIC: 4 µg/mL (≈ 5.1 µM)
[1]; [5]
  MIC: >128 µg/mL
[1]; YNB-AS medium, 37°C, 24 h
  MIC: >128 µg/mL
[1]; YNB-SG medium, 37°C, 24 h
  MIC: 64 µg/mL (≈ 81.5 µM)
C. albicans opt1–opt5Δ [2]; [5]
  MIC: >128 µg/mL
C. albicans opt1–opt5Δ [2]; YNB-AS medium, 37°C, 24 h
  MIC: >128 µg/mL
C. albicans opt1–opt5Δ [2]; YNB-SG medium, 37°C, 24 h
  MIC: 64 µg/mL (≈ 81.5 µM)
C. albicans opt2Δ opt3Δ; [5]
  MIC: >128 µg/mL
C. albicans opt2Δ opt3Δ; YNB-AS medium, 37°C, 24 h
  MIC: 32 µg/mL (≈ 40.8 µM)
C. albicans opt2Δ opt3Δ; YNB-SG medium, 37°C, 24 h
  MIC: 32 µg/mL (≈ 40.8 µM)
C. albicans opt4Δ; [5]
  MIC: >128 µg/mL
C. albicans opt4Δ; YNB-AS medium, 37°C, 24 h
  MIC: 8 µg/mL (≈ 10.2 µM)
C. albicans opt4Δ; YNB-SG medium, 37°C, 24 h
  MIC: 8 µg/mL (≈ 10.2 µM)
C. albicans opt5Δ; [5]
  MIC: >128 µg/mL
C. albicans opt5Δ; YNB-AS medium, 37°C, 24 h
  MIC: 8 µg/mL (≈ 10.2 µM)
C. albicans opt5Δ; YNB-SG medium, 37°C, 24 h
  MIC: 4 µg/mL (≈ 5.1 µM)
C. albicans ptr2Δ ptr22Δ; [5]
  MIC: >128 µg/mL
C. albicans ptr2Δ ptr22Δ; YNB-AS medium, 37°C, 24 h
  MIC: 4 µg/mL (≈ 5.1 µM)
C. albicans ptr2Δ ptr22Δ; YNB-SG medium, 37°C, 24 h
  MIC: 0.5 µg/mL (≈ 0.637 µM)
C. albicans opt1–opt5Δ [3]
  Uptake rate ± SD: 0.22 ± 0.04 nmol min^-1 (mg dry weight)^-1
C. albicans SC 5314
  Appearance of growth inhibitory zone: clear
[4]
  Initial uptake rate relative to wild type SC5314 cells: nearly the same or even somewhat higher
